Test results as given in PubChem BioAssay (NCI).
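Each compound was tested at five concentrations against cells in 96-well plates for 48 hours. GI50 = concentration required for 50% inhibition of growth. TGI: total growth inhibition.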

How the values were obtained:
Assay in all cases: growth of human tumour cells (NCI), 48 h
[1] = system: 786-0 renal
[2] = system: A498 renal
[3] = system: OVCAR-3 ovarian
[4] = system: SK-MEL-5 melanoma
[5] = system: SNB-19 CNS
[6] = system: SR leukemia
[7] = system: UACC-257 melanoma
[8] = system: UO-31 renal
[9] = system: MOLT-4 leukemia
[10] = system: OVCAR-4 ovarian

O=C(Oc1c(I)ccccc1=O)c1ccc([N+](=O)[O-])cc1
TGI [1]: > 100 µM | TGI [2]: 17 µM | TGI [3]: 40.1 µM | TGI [4]: 13.6 µM | TGI [5]: 46.5 µM | TGI [6]: 24.2 µM | TGI [7]: 35.1 µM | TGI [8]: 68.9 µM

Brc1ccc2c(c1)C1(c3cc(Br)ccc3-2)c2cc(Br)ccc2-c2ccc(Br)cc21
TGI [1]: > 100 µM | TGI [9]: > 100 µM | TGI [3]: > 100 µM | TGI [10]: > 100 µM | TGI [5]: > 100 µM | TGI [6]: > 100 µM | TGI [7]: > 100 µM | TGI [8]: > 100 µM

NC(Cc1nn[nH]n1)C(=O)O (configuration not stated)
TGI [1]: > 100 µM | TGI [2]: > 100 µM | TGI [9]: > 100 µM | TGI [3]: > 100 µM | TGI [10]: > 100 µM | TGI [4]: > 100 µM | TGI [5]: > 100 µM | TGI [6]: > 100 µM | TGI [7]: > 100 µM

O=c1c2ccccc2nc(-c2ccccc2)n1NCC1(O)OCC(O)C(O)C1O (configuration not stated)
TGI [1]: > 100 µM | TGI [2]: > 100 µM | TGI [9]: > 100 µM | TGI [3]: > 100 µM | TGI [10]: > 100 µM | TGI [4]: > 100 µM | TGI [5]: > 100 µM | TGI [7]: > 100 µM | TGI [8]: > 100 µM

Cc1nnc([S-])s1.[Au+].c1ccc([PH+](c2ccccc2)c2ccccc2)cc1
GI50 [1]: 1.78 µM | TGI [1]: 3.32 µM | GI50 [9]: 2.34 µM | TGI [9]: 6.76 µM | GI50 [3]: 1.73 µM | TGI [3]: 3.14 µM | GI50 [4]: 1.51 µM | TGI [4]: 2.97 µM | GI50 [5]: 1.6 µM | TGI [5]: 2.98 µM | GI50 [6]: 1.67 µM | TGI [6]: > 100 µM | GI50 [7]: 1.52 µM | TGI [7]: 3.09 µM | GI50 [8]: 1.64 µM | TGI [8]: 2.99 µM

O=C1CCC2(CCC(=O)NC2=O)C(=O)N1
TGI [1]: > 100 µM | TGI [9]: > 100 µM | TGI [3]: > 100 µM | TGI [4]: > 100 µM | TGI [5]: > 100 µM | TGI [6]: > 100 µM | TGI [7]: > 100 µM | TGI [8]: > 100 µM

COc1ccc(C2=CC(c3cc(OC)c(OC)c(OC)c3)n3ncnc3N2)cc1 (configuration not stated)
GI50 [1]: 0.0448 µM | TGI [1]: > 100 µM | GI50 [2]: 0.0426 µM | TGI [2]: 25.1 µM | GI50 [9]: 0.171 µM | TGI [9]: > 100 µM | GI50 [3]: 0.0286 µM | TGI [3]: 0.0764 µM | GI50 [10]: 0.391 µM | TGI [10]: 39.5 µM | GI50 [4]: 0.0427 µM | TGI [4]: 0.374 µM | GI50 [5]: 0.0672 µM | TGI [5]: > 100 µM | GI50 [6]: 0.0439 µM | TGI [6]: > 100 µM | GI50 [8]: 10 µM | TGI [8]: 66.4 µM

CO[C@H]1C=C[C@]23c4cc5c(cc4CN(CC2O)[C@@H]3C1)OCO5 (some centres not stated)
TGI [1]: 16.5 µM | TGI [2]: 9.66 µM | TGI [9]: 8.97 µM | TGI [3]: 22.3 µM | TGI [10]: 11.3 µM | TGI [4]: 17.8 µM | TGI [5]: 40.9 µM | TGI [7]: 42.8 µM | TGI [8]: 8.47 µM

COC(=O)C(CC=O)C(=O)C(=O)Nc1cccc(C(F)(F)F)c1 (configuration not stated)
TGI [1]: > 100 µM | TGI [9]: > 100 µM | TGI [3]: > 100 µM | TGI [10]: > 100 µM | TGI [4]: > 100 µM | TGI [5]: > 100 µM | TGI [6]: > 100 µM | TGI [7]: > 100 µM | TGI [8]: > 100 µM

COC(=O)c1cc(Nc2ccc(O)c3c2C(=O)c2c([N+](=O)[O-])ccc(O)c2C3=O)cc(C(=O)OC)c1
GI50 [1]: 30.6 µM | TGI [1]: > 100 µM | GI50 [2]: 20.8 µM | TGI [2]: > 100 µM | GI50 [9]: 6.37 µM | TGI [9]: > 100 µM | GI50 [3]: 3.42 µM | TGI [3]: 21.3 µM | GI50 [10]: 3.99 µM | TGI [10]: > 100 µM | GI50 [5]: 22.2 µM | TGI [5]: > 100 µM | GI50 [6]: 3.19 µM | TGI [6]: 42.6 µM | GI50 [7]: 3.23 µM | TGI [7]: > 100 µM | GI50 [8]: 16.5 µM | TGI [8]: > 100 µM
